Test results published in patent publication US8802597B2, “Herbicidal pyrimidines” (E I du Pont de Nemours and Company, priority 2003, dated 2014).

Tests used:
Type in all cases: in vivo
[1] = system: barnyardgrass (Echinochloa crus-galli); assay: Test A pre/postemergence
In short: (§1)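 After planting in loam and sand, species received test chemical as preemergence soil spray; postemergence spray went on 2–10 cm plants at 1–2 leaves at the same time. Evaluation: visual injury, ~10 d, 0 no effect to 100 complete control.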

[2] = system: crabgrass (Digitaria sanguinalis); assay: Test A pre/postemergence
In short: as §1

[3] = system: giant foxtail (Setaria faberi); assay: Test A pre/postemergence
In short: as §1

[4] = system: morningglory (Ipomoea spp.); assay: Test A pre/postemergence
In short: as §1

[5] = system: redroot pigweed (Amaranthus retroflexus); assay: Test A pre/postemergence
In short: as §1

[6] = system: velvetleaf (Abutilon theophrasti); assay: Test A pre/postemergence
In short: as §1

[7] = system: bermudagrass (Cynodon dactylon); assay: Test C pre/postemergence; conditions: Postemergence; for Bermudagrass plant response rating: scale 0 to 100 (0 no effect, 100 complete control)
In short: (§2)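 We sprayed seeded pots preemergence and 2–18 cm seedlings postemergence with test chemicals in a non-phytotoxic solvent mixture including surfactant. Greenhouse plants were visually compared with untreated controls at 12 to 14 days and scored 0 (no effect) to 100 (complete control).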

[8] = system: giant foxtail (Setaria faberii); assay: Test C pre/postemergence; conditions: Postemergence
In short: as §2

[9] = system: johnsongrass (Sorghum halepense); assay: Test C pre/postemergence; conditions: Postemergence
In short: as §2

soybean (Glycine max) = assay: Test C pre/postemergence; conditions: Postemergence
In short: as §2

[10] = Postemergence, 125 g ai/ha, 0 to 100 scale (0 no effect, 100 complete control)
[11] = Postemergence, 500 g ai/ha, 0 to 100 scale (0 no effect, 100 complete control)
[12] = Preemergence, 125 g ai/ha, 0 to 100 scale where 0 is no effect and 100 is complete control, approximately ten days
[13] = Preemergence, 500 g ai/ha, 0 to 100 scale where 0 is no effect and 100 is complete control, approximately ten days
[14] = 125 g ai/ha, scale 0 to 100 (0 no effect, 100 complete control)

Q: What does the source list for `Nc1nc(-c2ccc(Br)cc2)nc(C(=O)O)c1Br` [Compound 136]?
A: Plant response rating, Barnyardgrass [1, 10]: 50; Plant response rating, Barnyardgrass [1, 11]: 80; Plant response rating, Barnyardgrass [1, 12]: 5; Plant response rating, Barnyardgrass [1, 13]: 40; Plant response rating, Crabgrass [2, 10]: 35; Plant response rating, Crabgrass [2, 11]: 70; Plant response rating, Crabgrass [2, 12]: 20; Plant response rating, Crabgrass [2, 13]: 60; Plant response rating, Foxtail, Giant [3, 10]: 75; Plant response rating, Foxtail, Giant [3, 11]: 80; Plant response rating, Foxtail, Giant [3, 12]: 10; Plant response rating, Foxtail, Giant [3, 13]: 60; Plant response rating, Morningglory [4, 10]: 70; Plant response rating, Morningglory [4, 11]: 80; Plant response rating, Morningglory [4, 12]: 10; Plant response rating, Morningglory [4, 13]: 20; Plant response rating, Pigweed [5, 10]: 85; Plant response rating, Pigweed [5, 11]: 100; Plant response rating, Pigweed [5, 12]: 45; Plant response rating, Pigweed [5, 13]: 100; Plant response rating, Velvetleaf [6, 10]: 85; Plant response rating, Velvetleaf [6, 11]: 95; Plant response rating, Velvetleaf [6, 12]: 30; Plant response rating, Velvetleaf [6, 13]: 75; Plant response rating (scale of 0 to 100), Bermudagrass ([7]; 16 g ai/ha): 75; Plant response rating (scale of 0 to 100), Bermudagrass ([7]; 31 g ai/ha): 80; Bermudagrass plant response rating ([7]; 62 g ai/ha): 80; Bermudagrass plant response rating ([7]; 125 g ai/ha): 85; Plant response rating (scale of 0 to 100), Foxtail, Giant ([8]; 16 g ai/ha): 65; Plant response rating (scale of 0 to 100), Foxtail, Giant ([8]; 31 g ai/ha): 75; Plant response rating (scale of 0 to 100), Foxtail, Giant ([8]; 62 g ai/ha): 75; Foxtail, Giant plant response rating [8, 14]: 85; Plant response rating (scale of 0 to 100), Johnsongrass ([9]; 16 g ai/ha): 60; Plant response rating (scale of 0 to 100), Johnsongrass ([9]; 31 g ai/ha): 85; Plant response rating (scale of 0 to 100), Johnsongrass ([9]; 62 g ai/ha): 85; Johnsongrass plant response rating [9, 14]: 95; Plant response rating (scale of 0 to 100), Soybean (soybean (Glycine max); 16 g ai/ha): 95; Plant response rating (scale of 0 to 100), Soybean (soybean (Glycine max); 31 g ai/ha): 100; Plant response rating (scale of 0 to 100), Soybean (soybean (Glycine max); 62 g ai/ha): 100; Soybean plant response rating (soybean (Glycine max); [14]): 100
